Source: US10183011B2, “Anti-depression compounds” (Board of Regents of the University of Texas System, priority 2009, dated 2019)

Tests used:
Solubility = format: physicochemical
[1] = tested on: neural precursor cells in the subgranular zone of the dentate gyrus; test: In vivo pro-neurogenic efficacy/neuroprotection assay: intracerebroventricular infusion, BrdU incorporation in the dentate gyrus; set-up: species or system mouse (C57/Bl6); details: direct administration into the brain via Alzet minipumps for one week, 10 μM unless stated
Experimental: Compounds were evaluated for pro-neurogenic efficacy/neuroprotection in our standard in vivo assay at 10 μM concentration in four 12 week old adult male C57/Bl6 mice.
In an effort to identify compounds that might stimulate the birth of new neurons, or protect newborn neurons from cell death, a library of 1,000 compounds was screened using an in vivo assay. In the initial screen, compounds were randomly pooled into groups often and administered intracerebroventricularly at a constant rate over seven days into the left lateral ventricle of living mice via Alzet osmotic mini-pumps. Compounds were administered at a concentration of 10 μM for each molecule, making a total solute concentration of 100 μM. After seven days of infusion at a constant rate of 0.5 μL/hour, a total of 84 μL of volume will have left the pump (0.00084 μMoles) and entered the cerebrospinal fluid. The average volume of a brain from a 12 week old male, C57/B6 mouse in our study is 500 mm^3. […] Under these conditions, at the end of one week of infusion each compound would be present at 1.7 μMolar concentration. Since the actual amount of chemical compound in the brain is likely to be only a fraction of this predicted level, it is reasonable to estimate that compounds were administered at mid to low-nanomolar concentrations.
During compound infusion, animals were intraperitoneally (IP) injected daily with the thymidine analog, bromodeoxyuridine (BrdU), as a means of scoring the birth and survival of proliferating neural precursor cells in the hippocampus. Because both social interaction and voluntary exercise are known to stimulate hippocampal neurogenesis, mice were housed individually without access to running wheels throughout the screening period. Following the week-long period of compound administration, animals were perfused and sacrificed. Dissected brain tissue was fixed, embedded, sectioned, stained with antibodies to BrdU, and evaluated by light microcopy as a means of quantifying neurogenesis and survival of newborn neural precursor cells localized to the subgranular layer of the dentate gyrus on the brain hemisphere contralateral to the side of mini-pump cannulation. Every fifth section throughout the entire rostral-caudal extent of the hippocampus was analyzed, and the total number of BrdU+ cells was normalized against the measured volume of the dentate gyrus. Because both increased proliferation and survival of newborn neurons are important screening parameters, the screen was conducted over seven days in order to cast a wide net to detect molecules that might augment either process. […] Intracranial infusions of either fibroblast growth factor 2 (FGF-2) or artificial cerebral spinal fluid (aCSF) vehicle via the same, week-long protocol were employed as positive and negative controls. There was no difference in the number of BrdU-labeled cells in the dentate gyrus between mice subjected to surgical pump implantation and infusion with vehicle, and mice having had no surgery (FIG. 2). This confirmed the validity of the in vivo approach to assess the ability of intracerebroventricularly infused compounds to enhance hippocampal neurogenesis in the contralateral hemisphere.
In order to further study Example 45 Compound, an in vivo structure activity relationship (SAR) study was conducted using 37 chemical derivatives of the compound for pro-neurogenic activity via direct administration into the brain of adult mice via Alzet minipumps. Compounds were administered for one week at 10 uM into 4 mice per compound, along with daily IP injections of BrdU. Following compound administration, animals were perfused, sacrificed and subjected to sectioning, staining and light microscopy in order to monitor hippocampal neurogenesis localized to the subgranular layer of the dentate gyrus. Roughly 10% of the variant compounds retained pro-neurogenic activity indistinguishable from the parent compound. […]

[2] = tested on: neural precursor cells in the subgranular zone of the dentate gyrus; details: dosed intracranially as a 10 micromolar solution; MacMillan et al., J Am. Chem. Soc. 2011; cited from earlier work
U2OS cells = test: Calcium ionophore A23187-induced loss of mitochondrial membrane potential (TMRM dye release); format: cell-based; details: TMRM dye
Excerpt: FIG. 22A, FIG. 22B, FIG. 22C, FIG. 22D, FIG. 22E and FIG. 22F: Example 45 Compound Preserves Mitochondrial Membrane Potential in Parallel to Proneurogenic Activity U2OS cells were loaded with tetramethylrhodamine methyl ester (TMRM) dye and then exposed to the calcium ionophore A23187 either in the presence or absence of test compounds. Example 45 Compound (FIG. 22A) preserved mitochondrial membrane potential following exposure to the calcium ionophore A23187 in a dose-dependent manner. The protective effect of P7C3 was enantiomeric specific. […] Each compound was evaluated in triplicate with similar results.
Extensive evidence pioneered by the laboratory of Xiaodong Wang has shown that an intrinsic pathway leading to programmed cell death emanates from mitochondria (Liu et al., Cell 1996, 86, 147-157; Yang et al., Science 1997, 275, 1129-1132). With the help of the Wang lab, assays were established to test whether Example 45 Compound might protect mitochondria from calcium-induced dissolution (Distelmaier et al., Cytometry A 2008, 73, 129-138). Tetramethylrhodamine methyl ester (TMRM) is a cell-permeant, cationic red-orange fluorescent dye that is readily sequestered by active mitochondria. When loaded with TMRM dye, vehicle-only treated cells released the dye within 15 minutes of exposure to the calcium ionophore A23187. By contrast, dye release was prevented in cells exposed to as little as […] of Example 45 Compound (FIG. 18A).
Since P7C3 ameliorates the death of newborn neurons in the dentate gyrus in living mice, it is possible that its function might relate to mitochondrial integrity. Assays were established to test whether P7C3 might protect cultured U2OS cells from calcium-induced mitochondrial dissolution (Distelmaier et al., Cytometry A 2008, 73, 129-138). Tetramethylrhodamine methylester (TMRM) dye is sequestered by active mitochondria, and, when loaded with TMRM, vehicle-treated cells released the dye within 15 rain of exposure to the calcium ionophor A23 187.

[3] = tested on: cultured primary cortical neurons; test: Mitochondrial membrane potential (TMRM) after A23187 in cultured primary cortical neurons; format: cell-based; details: rat E14 cortical neurons
Excerpt: (§1) FIG. 23: Example 45 Compound Preserves Mitochondrial Membrane Potential in Cultured Primary Cortical Neurons. Cortical neurons cultures from rats on embryonic day 14 were loaded with tetramethylrhodamine methyl ester (TMRM) dye after 6 days of maturation. […] The remaining panels are from cells that were exposed to the calcium ionophore A23187 at time zero. With vehicle-alone, cortical neuron mitochondrial membrane potential was rapidly lost after exposure to the ionophore. […] Results shown are representative of 10 fields analyzed in each of 2 experimental runs for all conditions.
as §1, with “It was also examined whether” for “FIG. 23:”, “preserves mitochondrial membrane potential” for “Preserves Mitochondrial Membrane Potential”, “cultured primary cortical neurons (FIG. 23).” for “Cultured Primary Cortical Neurons.”

[4] = tested on: hippocampal neurogenesis in the DG; test: Comparison of P7C3 compounds and antidepressant drugs: DG BrdU labeling after i.c.v. infusion; format: in vivo, mouse; details: 10 μM i.c.v. for 7 days
Excerpt: The neuroprotective efficacies of both P7C3 and P7C3-A20 were next compared to currently marketed antidepressant medications, using screening conditions identical to those by which P7C3 was originally discovered. This experiment was based on the antidepressant actions of P7C3 and P7C3-A20 characterized here, and the dependence on hippocampal neurogenesis for behavioral efficacy of some marketed antidepressant medications in mice.
Proneurogenic efficacies in the DG of P7C3 and P7C3A20 were compared to those of vehicle (artificial cerebrospinal fluid) and several marketed antidepressant compounds (Sigma-Aldrich, St. Louis, Mo.) according to established methods. In brief, mice were housed individually in cages without running wheels or any form of environmental enrichment, in order to create an environment predicted to have as low of a baseline level of hippocampal neurogenesis as possible. Compounds (10 μM, i.c.v.) were administered for 7 days via subcutaneously implanted Alzet osmotic minipumps connected to a cannula directed into the left lateral ventricle, with implantation day designated as day 0. Starting on day 1, mice also received daily injections of BrdU (50 mg/kg, i.p.) at 9 am daily, for 6 days. Twenty four hours after the sixth BrdU injection, mice were transcardially perfused as described above.

| SMILES | preservation of mitochondrial membrane potential (U2OS cells) | increase of DG neurogenesis (BrdU labeling) over vehicle [4] | other results |
| --- | --- | --- | --- |
| OC(CNc1ccccc1)Cn1c2ccccc2c2ccccc21 (centres unmarked) [Example 76, 1-(9H-carbazol-9-yl)-3-(phenylamino)propan-2-ol] | – | – | solubility (Solubility): low solubility; pro-neurogenic activity in the in vivo hippocampal neurogenesis assay [1]: found to be active; pro-neurogenic activity of a commercial sample in the neurogenesis assay [2]: indistinguishable from vehicle |
| OC(CCNc1ccccc1)Cn1c2ccc(Br)cc2c2cc(Br)ccc21 (centres unmarked) [Example 21, 1-(3,6-dibromo-9H-carbazol-9-yl)-4-(phenylamino)butan-2-ol] | displayed less protective effect | – | – |
| COc1cccc(NCC(O)Cn2c3ccc(Br)cc3c3cc(Br)ccc32)c1 (single isomer, unassigned) [Example 1b, 1-(3,6-Dibromo-9H-carbazol-9-yl)-3-(3-methoxyphenylamino)-propan-2-ol] | Preservation of mitochondrial membrane potential in this assay was observed | – | – |
| COc1cccc(NCC(O)Cn2c3ccc(Br)cc3c3cc(Br)ccc32)c1 (single isomer, unassigned; (+)) [(+) enantiomer of Example 62 Compound, 1-(3,6-Dibromo-9H-carbazol-9-yl)-3-(3-methoxyphenylamino)-propan-2-ol] | observed only with the (+) enantiomer | – | pro-neurogenic activity in the in vivo hippocampal neurogenesis assay [1]: fully retained; pro-neurogenic activity in the in vivo hippocampal neurogenesis assay ([1]; listed as (+)-enantiomer of Example 62 Compound): retained potent pro-neurogenic activity |
| Cc1cc(C)n(CC(O)Cn2c3ccc(Br)cc3c3cc(Br)ccc32)n1 (centres unmarked) [Example 33, 1-(3,6-dibromo-9H-carbazol-9-yl)-3-(3,5-dimethyl-1H-pyrazol-1-yl)propan-2-ol] | displayed less protective effect | – | preservation of mitochondrial membrane potential [3]: less effective in preserving mitochondrial membrane potential at any dose tested |
| CNCCC=C1c2ccccc2CCc2ccccc21 [nortriptyline, nortrypline] | – | did not affect the magnitude of neurogenesis | – |
| CC(NC(C)(C)C)C(=O)c1cccc(Cl)c1 (centres unmarked) [bupropion] | – | about 49% | – |
| CN(C)CCCN1c2ccccc2CCc2ccccc21 [imipramine] | – | did not affect the magnitude of neurogenesis | – |
| CN[C@H]1CC[C@@H](c2ccc(Cl)c(Cl)c2)c2ccccc21 [sertraline] | – | did not affect the magnitude of neurogenesis | – |
